Drawing on PubChem BioAssay AID179 (DTP/NCI, 2004), this text covers outcome, EC50 and IC50 for 71 molecules.

The term EC50 denotes the concentration that produces a half-maximal response. For orientation: IC50 means the concentration at which inhibition is half-maximal.

SMILES strings stand for the structures. Calls of active or inactive are those of the source.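 The calls were made as follows: active = compounds giving half or more protection of infected cells from virus-caused growth loss, again on retest; inactive = the rest.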 Some results are limits rather than exact numbers.

This assay deals with CEM cells HIV-1 protection, formazan growth assay. In words: NCI AIDS Antiviral Assay. The following applies: for IC50: measured here: growth of uninfected CEM cells. A digest of the protocol:
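Category rules: moderately active means at least 50% protection on retest, and confirmed active means 100% protection reproducibly. The underlying data came from a formazan growth assay in HIV-1-infected CEM cells.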

`CN=C1SC(=Nc2ccc(N(C)C)cc2)N1C`: the result was inactive. Regarding `CSc1ccc(NC(=O)Nc2cc(C)ccn2)cc1`, the EC50 is greater than 200 µM and the IC50 stood at 191 µM. For `Cc1cccc(NP2(=O)NCCCN2)c1`, the EC50 was 316 µM and the IC50 amounted to 398 µM. For `C[C@@H](Br)[C@@H]1CC[C@H]2c3[nH]c4ccccc4c3CCN2C1`, the EC50 is greater than 200 µM and the concentration for half-maximal inhibition (IC50) was 17.4 µM. Regarding `Nc1ccc(C(c2ccccc2)(c2ccccc2)c2ccccc2)cc1`, the outcome was inactive. Turning to `CC12CCC(=O)C=C1CCC1C2CCC2(C)C1CCC2(O)C1(O)CCC2C3CCC4=CC(=O)CCC4(C)C3CCC21C` (configuration not stated), the EC50 is greater than 100 µM and the IC50 worked out at 55 µM. As for `COc1cccc(/C(CC(O)(C(F)(F)F)C(F)(F)F)=N\N(C)C)c1`, the EC50 was greater than 200 µM and the IC50 is greater than 200 µM. Turning to `N[C@H]1C2C3CC4C5CC(C42)C1(c1ccccc1)C53` (some centres not stated), the EC50 is greater than 661 µM and the IC50 came out at 53.7 µM. Consider `CCOP(=O)(OCC)/C(C#N)=C\c1ccsc1`, for which the EC50 was greater than 912 µM and the IC50 was greater than 912 µM.

`O=C1CSC(/C=C/c2ccccc2)N1c1ccc(-n2c(-c3ccccc3)nc3ccccc3c2=O)cc1` (configuration not stated): the EC50 was greater than 200 µM and the half-inhibitory concentration (IC50) stood at 105 µM. The like results for `COc1ccc2[nH]c3c(C)c4ccnc(NCCCN(C)CCCN)c4c(C)c3c2c1` were, in that order, greater than 1 µM and 0.38 µM. As to `CCCCOC(=O)c1c2nc3c(C(=O)OCCCC)ccc(C)c3oc-2c(C)c(=O)c1NC(C)=O`, the EC50 was greater than 151 µM and the concentration for half-maximal inhibition (IC50) is 24.5 µM. Regarding `CC[N+]1(C)CCC(O)(c2ccc(OC)cc2)C(C(=O)c2ccc(OC)cc2)C1` (configuration not stated), the EC50 was greater than 200 µM and the IC50 turned out to be 10.2 µM.

For `CCOC(=O)C12CCCC1(O)N(NC(=O)c1cccc(Cl)c1)C(C)=C2C(=O)OC` (configuration not stated), the EC50 is greater than 427 µM and the half-maximal inhibitory concentration (IC50) amounted to 123 µM. For `COCN1C(=O)[C@@H]2CCCN2C(=O)c2cc(N)ccc21`, the EC50 was greater than 200 µM and the IC50 is greater than 200 µM. For `Cc1cccc(C)c1N1C(=O)C2c3[nH]c4ccccc4c3C3CCC(C(C)(C)C)CC3C2C1=O` (configuration not stated), the EC50 is greater than 200 µM and the IC50 amounted to 12.3 µM.

Consider `Cc1ccc(C2=Nc3ccc(F)cc3SC(C(=O)O)C2)cc1` (configuration not stated), for which the result was inactive. Regarding `COc1ccccc1/C=C/C(=O)c1sc(-c2cccnc2)nc1C`, the EC50 was greater than 15.5 µM and the IC50 was greater than 15.5 µM.

For `CC(=O)O[C@@H]1[C@H](OC2CCCCC2(c2ccccc2)c2ccccc2)O[N+]([O-])=CC12CCCCC2` (some centres not stated), the EC50 was greater than 200 µM and the IC50 turned out to be 2.69 µM. For `C=C1CN(S(=O)(=O)c2ccc(C)cc2)CCCN(Cc2cccs2)CCCN(S(=O)(=O)c2ccc(C)cc2)C1`, the EC50 was greater than 200 µM and the 50% inhibitory concentration (IC50) amounted to 70.8 µM. Regarding `N#C/C(=C\c1ccc(C#N)cc1)C(=O)c1ccccc1`, the EC50 is greater than 97.7 µM and the IC50 was 41.7 µM. For `O=C1CC[C@@H](S(=O)(=O)c2ccccc2)[C@@H](/C=C/c2ccccc2)O1`, the result was inactive. Take `Nc1nc(NCCO)c(N=O)c(=O)[nH]1`: the EC50 is greater than 182 µM and the IC50 is greater than 182 µM. As for `Cc1nc2c(-c3ccccc3)[nH]c(C)c2c(=O)o1`, the EC50 is greater than 200 µM and the IC50 is 69.2 µM.

As to `CCOP(=O)(OCC)C(Nc1ccc(C(=O)O)cc1)c1ccc(C(Nc2ccc(C(=O)O)cc2)P(=O)(OCC)OCC)cc1` (configuration not stated), the EC50 was greater than 200 µM and the IC50 is greater than 200 µM. Consider `Cc1cc(NS(=O)(=O)c2ccc(Nc3c4ccccc4nc4c(C(=O)Nc5ccccc5)cccc34)cc2)no1`, for which the EC50 was greater than 200 µM and the IC50 came out at 10.5 µM. `OC1C2C3CCC(C3)C2C(O)C2C3CCC(C3)C12` (configuration not stated): the EC50 was greater than 200 µM and the IC50 was greater than 200 µM.

With `COC(=O)CCn1c(N)nc2c1c(=O)n(C)c(=O)n2C`, the EC50 is greater than 468 µM and the IC50 is greater than 468 µM. Take `O=C(/C(=C\C(=O)c1cccs1)c1ccsc1)c1ccc(Br)cc1`: the result was inactive. Regarding `Cc1cc(=O)[nH]c(=S)n1-c1nc2ccccc2o1`, the EC50 was greater than 115 µM and the IC50 is greater than 115 µM. As to `O=C(O)/C=C\C(=O)Nc1ccc(SSc2ccc(NC(=O)/C=C\C(=O)O)cc2)cc1`, the EC50 was 182 µM and the IC50 is greater than 200 µM. `OC1COC(c2ccccc2)OC1C1OC(c2ccccc2)OC2COC(c3ccccc3)OC21` (configuration not stated): the EC50 is greater than 100 µM and the half-inhibitory concentration (IC50) is greater than 100 µM. Take `CC(=O)CNC(=O)OC(C)(C)C`: the result was inactive. Take `O=C(NCCN(CCNC(=O)c1cccc(O)c1O)CCNC(=O)c1cccc(O)c1O)c1cccc(O)c1O`: the EC50 was greater than 200 µM and the half-maximal inhibitory concentration (IC50) was found to be 3.39 µM.

`COC(=O)CCC1=CCC2(SC)C(=O)Nc3cccc1c32` (configuration not stated): the EC50 was greater than 200 µM and the IC50 was greater than 200 µM. With `CCOC(=O)C(N=Nc1ccc(S(N)(=O)=O)cc1)C(C)=O` (configuration not stated), the EC50 was greater than 794 µM and the IC50 is 389 µM. Take `NC(CCc1ncc(-c2ccccc2)s1)C(=O)O` (configuration not stated): the result was inactive.

Consider `O=C1C=C2C3c4c(cc(O)cc4C4c5c(O)cc6c(c5[C@@H]5C(c7ccc(O)cc7)C1C(=O)[C@@]25[C@@H]4c1ccc(O)cc1)[C@@H](c1cc(O)cc(O)c1)[C@H](c1ccc(O)cc1)O6)O[C@H]3c1ccc(O)cc1` (some centres not stated), for which the EC50 was greater than 15.8 µM and the concentration for half-maximal inhibition (IC50) was found to be 10.7 µM. As to `COc1ccc(CCNC(=S)/N=C\C2=C(O)c3ccccc3C2=O)cc1OC`, the EC50 was greater than 200 µM and the IC50 was greater than 200 µM. As for `CCOP(=O)(OCC)/C(C#N)=C/c1cccc(OC)c1`, the EC50 is greater than 229 µM and the IC50 was greater than 229 µM.

`COC(=O)C1=C(C(=O)OC)C(N(C)C)C(C(=O)OC)=C(C(=O)OC)S1`: the EC50 is greater than 200 µM and the IC50 was greater than 200 µM. Take `Cc1nc2cc3c(cc2n2cccc12)oc1ccccc13`: the EC50 was greater than 44.7 µM and the IC50 turned out to be 35.5 µM. As to `O=C(NCCC[P+](c1ccccc1)(c1ccccc1)c1ccccc1)OCc1ccccc1`, the EC50 was greater than 200 µM and the IC50 stood at 1.58 µM.

Regarding `COc1ccc(N=Nc2c(-c3ccccc3)nn(C(=O)CC(=O)Nc3cccc(Cl)c3)c2-c2ccccc2)cc1`, the EC50 is greater than 18.2 µM and the IC50 was greater than 18.2 µM. On to `CC1CCCc2c1n[nH]c2CC1CC(=O)NC(=O)C1` (configuration not stated), for which the EC50 is greater than 200 µM and the IC50 is greater than 200 µM.

On to `COc1ccccc1C(C(=O)NC1CN2CCC1CC2)c1ccsc1` (configuration not stated), for which the EC50 was greater than 200 µM and the IC50 is 151 µM.

Take `O=C1c2ccccc2C(=O)N1CCSCC(CO)SCCN1C(=O)c2ccccc2C1=O` (configuration not stated): the EC50 was 191 µM and the IC50 was greater than 200 µM. For the molecule `O=C(O)c1cc(=O)c2c([nH]c3ccccc32)s1`, the result was inactive.

Turning to `c1ccn2nncc2c1`, the EC50 was greater than 200 µM and the IC50 is greater than 200 µM. As for `Cc1nn(C(=O)Cc2ccccc2)c2c1C(c1ccccc1O)SC(N)=N2` (configuration not stated), the EC50 was 57.5 µM and the IC50 is 398 µM.

On to `N#Cc1cccc(C2C(=O)c3ccc(C(=O)c4ccc5c(c4)C(=O)N(c4ccc(Oc6ccc(N7C(=O)c8ccc(C(=O)c9ccc%10c(c9)C(=O)N(c9cccc(C#N)c9)C%10=O)cc8C7=O)cc6)cc4)C5=O)cc3C2=O)c1` (configuration not stated), for which the EC50 was greater than 3.47 µM and the IC50 is greater than 3.47 µM. With `OC(NN=C1CCCC1)(C(F)(F)Cl)C(F)(F)Cl`, the EC50 was greater than 200 µM and the IC50 was found to be 170 µM. For `CCOC(=O)C1SC(=Nc2ccc(Cl)cc2)N=C1C` (configuration not stated), the EC50 is greater than 87.1 µM and the IC50 was greater than 87.1 µM. On to `CC1CC/C(=C\c2ccc(Cl)cc2)C2=C1C(c1ccc(Cl)cc1)N1C(=O)CSC1=N2` (configuration not stated), for which the outcome was inactive. In the case of `CCOc1ccccc1NC(=O)C(=O)c1c(O)c2ccc(O)cc2oc1=O`, the EC50 is greater than 490 µM and the IC50 is 182 µM. As to `O=[N+]([O-])c1ncc(N(CCO)CCO)s1`, the EC50 was greater than 200 µM and the half-inhibitory concentration (IC50) was 85.1 µM. As for `COc1ccccc1/C=C(\NC(=O)c1ccccc1)c1nc2ccc(Cl)cc2[nH]1`, the EC50 is greater than 46.8 µM and the IC50 was greater than 46.8 µM. Turning to `CC1=CC(C)(C)Nc2ccccc2N1`, the EC50 was greater than 200 µM and the IC50 is greater than 200 µM. As to `CC(CO)NNC(C)CO` (configuration not stated), the EC50 is greater than 200 µM and the IC50 was greater than 200 µM. For the molecule `CS(=O)(=O)c1c(N)c2nc(Cl)cn2c2nc3ccccc3nc12`, the EC50 was greater than 5.75 µM and the IC50 is greater than 5.75 µM.

`COc1cccc2c1C(=O)C1=C(C2=O)C(O)CC(C)(C)O1` (configuration not stated): the EC50 was greater than 200 µM and the IC50 amounted to 33.9 µM.

On to `C=C1CN(S(=O)(=O)c2ccc(C)cc2)CCCN(C(C)CC)CCCN(S(=O)(=O)c2ccc(C)cc2)C1` (configuration not stated), for which the EC50 was greater than 200 µM and the IC50 is greater than 200 µM. As for `CN(/N=C\c1ccc2ccccc2c1)C1=NCCN1`, the EC50 was greater than 200 µM and the half-maximal inhibitory concentration (IC50) was 22.9 µM. As for `COC1/C=C/OC2(C)Oc3c(C)c(O)c4c(O)c(c(/C=N/n5c(=O)[nH]c6ccccc6c5=O)c(O)c4c3C2=O)NC(=O)/C(C)=C\C=C\C(C)C(O)C(C)C(O)C(C)C(OC(C)=O)C1C` (configuration not stated), the EC50 was greater than 200 µM and the half-inhibitory concentration (IC50) amounted to 29.5 µM. For `Clc1nc2cc3c(cc2n2cccc12)oc1ccccc13`, the EC50 is greater than 200 µM and the IC50 is greater than 200 µM. On to `N#Cc1cc([N+](=O)[O-])ccc1NC(=O)C(=O)Nc1n[nH]c(N)n1`, for which the EC50 is greater than 794 µM and the IC50 is 692 µM. `O=C(CNc1ccccc1C(=O)O)Nn1cnc2ccc(S(=O)(=O)Nc3ccccc3C(=O)O)cc2c1=O`: the EC50 is greater than 200 µM and the IC50 is greater than 200 µM.

Take `COc1cc(Nc2cnc3cc(N)ccc3n2)cc(OC)c1OC`: the EC50 is greater than 200 µM and the 50% inhibitory concentration (IC50) is greater than 200 µM. `Cc1cc(=O)[nH]c2[nH][nH]c(=O)c12`: the outcome was inactive. On to `Nc1ccc(S(=O)(=O)N/N=C/c2ccco2)cc1`, for which the EC50 is greater than 676 µM and the IC50 was greater than 676 µM. Regarding `O=C1SS(=O)c2ccccc21` (configuration not stated), the EC50 is greater than 200 µM and the IC50 was 95.5 µM.
